# Data: patent publication US20260125382A1, “COMPOUNDS FOR INHIBITING OR DEGRADING CDK2 AND/OR CDK9 AND MEDICINAL USE THEREOF” (KOREA RESEARCH INSTITUTE OF CHEMICAL TECHNOLOGY, priority 2022, published 2026)
# Experiments:
# CDK9 = biological target: T1, CDK9 (Homo sapiens, UniProt P50750); experiment: CDK protein degradation activity (Western blotting), CDK9; assay type: cell-based; conditions: MDA-MB-231 cells, 16 hours, Western blot
# T1 construct: endogenous in cells; host or cells: MDA-MB-231
# T1 sequence (P50750 whole entry): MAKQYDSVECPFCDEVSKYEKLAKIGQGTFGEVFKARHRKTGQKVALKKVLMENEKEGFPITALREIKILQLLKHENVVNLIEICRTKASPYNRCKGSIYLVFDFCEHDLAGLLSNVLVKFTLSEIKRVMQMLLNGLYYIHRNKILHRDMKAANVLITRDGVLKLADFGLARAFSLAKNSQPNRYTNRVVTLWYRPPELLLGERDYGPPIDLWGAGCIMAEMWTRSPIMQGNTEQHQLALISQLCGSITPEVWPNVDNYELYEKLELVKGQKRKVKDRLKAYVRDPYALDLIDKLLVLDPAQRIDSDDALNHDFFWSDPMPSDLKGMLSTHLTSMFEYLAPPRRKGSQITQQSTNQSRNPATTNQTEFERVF
# Method in brief: (§1)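 Protein levels were read by Western blot densitometry, tubulin serving as loading reference. Beforehand, MDA-MB-231 cells had been exposed for 16 hours to 100 nM, 1 μM or 10 μM compound, DMSO as control.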
# CDK2 = biological target: T2, CDK2 (Homo sapiens, UniProt P24941); experiment: CDK protein degradation activity (Western blotting), CDK2; assay type: cell-based; conditions: MDA-MB-231 cells, 16 hours, Western blot
# T2 construct: endogenous in cells; host or cells: MDA-MB-231
# Method in brief: as §1
SMILES,Enzyme degradation CDK9 (% remaining) @ 0.1 μM (CDK9),Enzyme degradation CDK9 (% remaining) @ 1 μM (CDK9),Enzyme degradation CDK9 (% remaining) @ 10 μM (CDK9),Enzyme degradation CDK2 (% remaining) @ 0.1 μM (CDK2),Enzyme degradation CDK2 (% remaining) @ 1 μM (CDK2),Enzyme degradation CDK2 (% remaining) @ 10 μM (CDK2)
"O=C1CC[C@@H](c2cccc(OCC(=O)N3CCN(CCCN4CCN(c5ccc(Nc6ncnc7c6ncn7C6CC(NC(=O)Cc7ccccc7)C6)cc5)CC4)CC3)c2)C(=O)N1 (stereo partly drawn) [Compound 237, N-((1s,3s)-3-(6-((4-(4-(3-(4-(2-(3-(2,6-dioxopiperidin-3-yl)phenoxy)acetyl)piperazin-1-yl)propyl)piperazin-1-yl)phenyl)amino)-9H-purin-9-yl)cyclobutyl)-2-phenylacetamide]",20%,0%,0%,10%,0%,0%
"Cc1cccc(C(=O)NC2CC(n3cnc4c(NCCC5CCN(CC6CCN(C(=O)COc7cccc8c7C(=O)N([C@H]7CCC(=O)NC7=O)C8=O)CC6)CC5)ncnc43)C2)n1 (stereo partly drawn) [Compound 122, N-((1s,3s)-3-(6-((2-(1-((1-(2-((2-(2,6-dioxopiperidin-3-yl)-1,3-dioxoisoindolin-4-yl)oxy)acetyl)piperidin-4-yl)methyl)piperidin-4-yl)ethyl)amino)-9H-purin-9-yl)cyclobutyl)-6-methylpicolinamide]",10%,0%,0%,30%,10%,0%
"O=C1CC[C@@H](c2ccc(OCC(=O)N3CCC(CN4CCN(c5ccc(Nc6ncnc7c6ncn7C6CC(NC(=O)c7cccc(C(F)(F)F)n7)C6)cc5)CC4)CC3)cc2)C(=O)N1 (stereo partly drawn) [Compound 436, N-((1s,3s)-3-(6-((4-(4-((1-(2-(4-(2,6-dioxopiperidin-3-yl)phenoxy)acetyl)piperidin-4-yl)methyl)piperazin-1-yl)phenyl)amino)-9H-purin-9-yl)cyclobutyl)-6-(trifluoromethyl)picolinamide]",10/10/10%,10/10/10%,10/10/10%,30/30/30%,30/30/30%,30/30/30%
"O=C1CCC(N2C(=O)c3cccc(NCC(=O)N4CC(N5CCC6(CC5)CC(N5CCN(c7ccc(Nc8ncnc9c8ncn9[C@H]8C[C@@H](NC(=O)Cc9ccccc9)C8)cc7)CC5)C6)C4)c3C2=O)C(=O)N1 (stereo partly drawn) [Compound 277, N-((1s,3s)-3-(6-((4-(4-(7-(1-((2-(2,6-dioxopiperidin-3-yl)-1,3-dioxoisoindolin-4-yl)glycyl)azetidin-3-yl)-7-azaspiro[3.5]nonan-2-yl)piperazin-1-yl)phenyl)amino)-9H-purin-9-yl)cyclobutyl)-2-phenylacetamide]",0/0/0%,0/0/0%,0/0/0%,30/30/30%,30/30/30%,30/30/30%
"Cc1cccc(C(=O)N[C@H]2C[C@@H](n3cnc4c(NC5CCN(CCC6CCN(C(=O)COc7ccc8c(c7)C(=O)N(C7CCC(=O)NC7=O)C8=O)CC6)CC5)ncnc43)C2)n1 (stereo partly drawn) [Compound 31, N-((1s,3s)-3-(6-((1-(2-(1-(2-((2-(2,6-dioxopiperidin-3-yl)-1,3-dioxoisoindolin-5-yl)oxy)acetyl)piperidin-4-yl)ethyl)piperidin-4-yl)amino)-9H-purin-9-yl)cyclobutyl)-6-methylpicolinamide]",10%,0%,0%,70%,40%,30%
"Cc1cccc(C(=O)N[C@H]2C[C@@H](n3cnc4c(Nc5ccc(N6CCN(CC7CCN(C(=O)C8CN(c9ccc%10c(c9)C(=O)N([C@H]9CCC(=O)NC9=O)C%10=O)C8)CC7)CC6)cc5C)ncnc43)C2)n1 [Compound 448, N-((1s,3s)-3-(6-((4-(4-((1-(1-(2-(2,6-dioxopiperidin-3-yl)-1,3-dioxoisoindolin-5-yl)azetidin-3-carbonyl)piperidin-4-yl)methyl)piperazin-1-yl)-2-methylphenyl)amino)-9H-purin-9-yl)cyclobutyl)-6-methylpicolinamide]",20/20/20%,20/20/20%,20/20/20%,70/70/70%,70/70/70%,70/70/70%
"Cc1cccc(C(=O)N[C@H]2C[C@@H](n3cnc4c(NC5CCN(C(=O)CC6CCN(C(=O)COc7cccc8c7C(=O)N([C@H]7CCC(=O)NC7=O)C8=O)CC6)CC5)ncnc43)C2)n1 [Compound 50, N-((1s,3s)-3-(6-((1-(2-(1-(2-((2-(2,6-dioxopiperidin-3-yl)-1,3-dioxoisoindolin-4-yl)oxy)acetyl)piperidin-4-yl)acetyl)piperidin-4-yl)amino)-9H-purin-9-yl)cyclobutyl)-6-methylpicolinamide]",90%,60%,20%,80%,40%,10%

# More lines, now with the values ahead:
Enzyme degradation CDK9 (% remaining) @ 0.1 μM (CDK9),Enzyme degradation CDK9 (% remaining) @ 1 μM (CDK9),Enzyme degradation CDK9 (% remaining) @ 10 μM (CDK9),Enzyme degradation CDK2 (% remaining) @ 0.1 μM (CDK2),Enzyme degradation CDK2 (% remaining) @ 1 μM (CDK2),Enzyme degradation CDK2 (% remaining) @ 10 μM (CDK2),SMILES
70%,0%,0%,10%,0%,0%,"O=C1CC[C@H](N2C(=O)c3ccc(N4CCN(CC5CCN(c6ccc(Nc7ncnc8c7ncn8C7CC(NC(=O)Cc8ccccc8)C7)cc6)CC5)CC4)cc3C2=O)C(=O)N1 (stereo partly drawn) [Compound 319, N-((1s,3s)-3-(6-((4-(4-((4-(2-(2,6-dioxopiperidin-3-yl)-1,3-dioxoisoindolin-5-yl)piperazin-1-yl)methyl)piperidin-1-yl)phenyl)amino)-9H-purin-9-yl)cyclobutyl)-2-phenylacetamide]"
10/10/10%,10/10/10%,10/10/10%,30/30/30%,30/30/30%,30/30/30%,"O=C1CC[C@H](N2C(=O)c3ccc(N4CC(C(=O)N5CCC(CCN6CCN(c7ccc(Nc8ncnc9c8ncn9C8CC(NC(=O)c9c(Cl)cccc9Cl)C8)cc7)CC6)CC5)C4)cc3C2=O)C(=O)N1 (stereo partly drawn) [Compound 412, 2,6-dichloro-N-((1s,3s)-3-(6-((4-(4-(2-(1-(1-(2-(2,6-dioxopiperidin-3-yl)-1,3-dioxoisoindolin-5-yl)azetidin-3-carbonyl)piperidin-4-yl)ethyl)piperazin-1-yl)phenyl)amino)-9H-purin-9-yl)cyclobutyl)benzamide]"
10%,0%,0%,40%,20%,20%,"Cc1cccc(C(=O)NC2CC(n3cnc4c(Nc5ccc(N6CCN(CC7CCN(C(=O)CNc8ccc9c(c8)C(=O)N([C@H]8CCC(=O)NC8=O)C9=O)CC7)CC6)cc5)ncnc43)C2)n1 (stereo partly drawn) [Compound 92, N-((1s,3s)-3-(6-((4-(4-((1-((2-(2,6-dioxopiperidin-3-yl)-1,3-dioxoisoindolin-5-yl)glycyl)piperidin-4-yl)methyl)piperazin-1-yl)phenyl)amino)-9H-purin-9-yl)cyclobutyl)-6-methylpicolinamide]"
40%,0%,0%,80%,80%,60%,"O=C(CNc1ccc2c(c1)C(=O)N(C1CCC(=O)NC1=O)C2=O)NC[C@H]1CC[C@H](CN2CCN(c3ccc(Nc4ncnc5c4ncn5[C@H]4C[C@@H](NC(=O)Cc5ccccc5)C4)cc3)CC2)CC1 (stereo partly drawn) [Compound 220, 2-((2-(2,6-dioxopiperidin-3-yl)-1,3-dioxoisoindolin-5-yl)amino)-N-(((1r,4r)-4-((4-(4-((9-((1s,3s)-3-(2-phenylacetamido)cyclobutyl)-9H-purin-6-yl)amino)phenyl)piperazin-1-yl)methyl)cyclohexyl)methyl)acetamide]"
